Reference: US4255421A, “Fortimicin aminoglycosides, process for production thereof, and use thereof” (Kowa Company, Ltd., priority 1978, dated 1981)

Experiments:
Format in all cases: cell-based
[1] = system: Staphylococcus aureus 209P; assay: antibacterial spectra (Table 1)
[2] = system: Bacillus subtilis ATCC 6633; assay: antibacterial spectra (Table 1)
Bacillus cereus = assay: antibacterial spectra (Table 1)
Bacillus anthracis = system: Bacillus anthracis
Streptococcus faecalis = assay: antibacterial spectra (Table 1)
Escherichia coli NIHJ = assay: antibacterial spectra (Table 1)
Escherichia coli ML1410 = assay: antibacterial spectra (Table 1)
Proteus vulgaris OX-19 = assay: antibacterial spectra (Table 1)
[3] = system: Klebsiella pneumoniae PCI 602; assay: antibacterial spectra (Table 1)
[4] = system: Pseudomonas aeruginosa Shibata; assay: antibacterial spectra (Table 1)
[5] = system: Pseudomonas aeruginosa A3; assay: antibacterial spectra (Table 1)
[6] = system: Pseudomonas aeruginosa No. 12; assay: antibacterial spectra (Table 1)
[7] = system: Pseudomonas aeruginosa TI-13; assay: antibacterial spectra (Table 1)
[8] = system: Pseudomonas aeruginosa K-11; assay: antibacterial spectra (Table 1); settings: Pseudomonas aeruginosa K-11 (resistant to kanamycin)
[9] = system: Pseudomonas aeruginosa No. 157; assay: antibacterial spectra (Table 1)
[10] = system: Pseudomonas aeruginosa No. 315; assay: antibacterial spectra (Table 1); settings: Pseudomonas aeruginosa No. 315 (resistant to gentamicin, tobramycin and amikacin)
Proteus inconstans = assay: antibacterial spectra (Table 1)
Serratia marcescens = assay: antibacterial spectra (Table 1)

Work on 4-N-glycyl KA-6606VI yielded an antibacterial spectra [1] of 0.39, an antibacterial spectra [2] of 0.20 and an antibacterial spectra (Bacillus cereus) of 0.78. The antibacterial spectra (Bacillus anthracis) was 0.20, the antibacterial spectra (Streptococcus faecalis) was 25 and the antibacterial spectra (Escherichia coli NIHJ) was 1.56. For the same substance, the antibacterial spectra (Escherichia coli ML1410) was 3.13, the antibacterial spectra (Proteus vulgaris OX-19) was 1.56 and the antibacterial spectra [3] was 0.78. For the same substance, the antibacterial spectra [4] was 6.25, the antibacterial spectra [5] was 6.25 and the antibacterial spectra [6] was 0.78. For the same substance, the antibacterial spectra [7] was 3.13, the antibacterial spectra [8] was 6.25 and the antibacterial spectra [9] was 3.13. It also gave an antibacterial spectra [10] of 12.5, an antibacterial spectra (Proteus inconstans) of 1.56 and an antibacterial spectra (Serratia marcescens) of 0.78.
